Where a name gives a salt, the structure may show the parent alone.
Columns and labels:
Rhodococcus sp. = assay: Bacterial liquid culture growth curves (OD600), Rhodococcus sp.; conditions: 18.5 h, read-out: Absolute growth rate relative to mock control, Rhodococcus sp.
[1] = system: Pseudomonas syringae pv. tomato (Pto) DC3000; assay: Bacterial liquid culture growth curves (OD600), Pto DC3000; conditions: 18.5 h, read-out: Absolute growth rate relative to mock control, Pto DC3000
P. infestans = assay: whole plant or invertebrate; type: in vivo; conditions: Phytophthora infestans, in Solanum tuberosum, read-out: P. infestans % inhibition

Row | Compound | activity at 100 µM (Rhodococcus sp.) [%] | activity at 100 µM [1] [%] | inhibition at 100 µM (P. infestans) [%]
1 | Fc1cc(F)cc(-c2cc(-c3ccc4c(c3)OCO4)n[nH]2)c1 [Compound 104, 3-(1,3-Benzodioxol-5-yl)-5-(3,5-difluorophenyl)-1H-pyrazole] | 51 | 101 | –
2 | CNc1ccc(-c2cc(-c3cccc(Br)c3)[nH]n2)cc1 [Compound 42, 5-(3-Bromophenyl)-3-[4-(methylamino)phenyl]-1H-pyrazole] | 72 | 73 | –
3 | COc1cc(C(F)(F)F)ccc1-c1cnc(-c2cccc(C(=O)O)c2)o1 [Compound 122, 3-{5-[2-Methoxy-4-(trifluoromethyl)phenyl]-1,3-oxazol-2-yl}benzoic acid] | – | – | 36
4 | CCc1ccc(-c2c[nH]c(-c3ccc(NC(=O)[C@@H]4CCCN4)cc3)n2)cc1 [Compound 153, (2S)-N-{4-[4-(4-Ethylphenyl)-1H-imidazol-2-yl]phenyl}pyrrolidine-2-carboxamide dihydrochloride] | – | – | 95
5 | CCOc1cccc(-c2cc(-c3ccc(OC(F)(F)F)cc3)[nH]n2)c1 [Compound 165, 5-(3-Ethoxyphenyl)-3-[4-(trifluoromethoxy)phenyl]-1H-pyrazole] | – | – | 2
6 | COc1ccc(-c2n[nH]c(-c3cccc(N(C)C)c3)n2)cc1OC [Compound 105, 3-[3-(3,4-Dimethoxyphenyl)-1H-1,2,4-triazol-5-yl]-N,N-dimethylaniline] | – | – | 77
7 | CN1CCN(c2cccc(-c3nc(-c4ccc5c(c4)OCCO5)co3)c2)CC1 [Compound 114, 1-Methyl-4-{3-[4-(2,3-dihydro-1,4-benzodioxin-6-yl)-1,3-oxazol-2-yl]phenyl}piperazine] | – | – | 93
8 | Oc1ccc(-c2coc(-c3ccc4ncccc4c3)n2)cc1 [Compound 60, 6-[4-(4-Hydroxyphenyl)-1,3-oxazol-2-yl]quinoline] | – | – | 9
9 | O=C(Nc1ccccc1)Nc1ccc(-c2nc(-c3cccc(C(F)(F)F)c3)no2)cc1 [Compound 94, 1-Phenyl-3-(4-{3-[3-(trifluoromethyl)phenyl]-1,2,4-oxadiazol-5-yl}phenyl)urea] | – | – | 9
10 | CCOC(=O)Nc1cccc(-c2c[nH]c(-c3ccc(F)cc3)n2)c1 [Compound 108, Ethyl {3-[2-(4-fluorophenyl)-1H-imidazol-5-yl]phenyl}carbamate] | – | – | 51
11 | O=C(O)c1ccc(-c2nc(-c3ccc(N4CCCC4)cc3)c[nH]2)cc1 [Compound 135, 4-{4-[4-(Pyrrolidin-1-yl)phenyl]-1H-imidazol-2-yl}benzoic acid] | – | – | 51
12 | CCc1ccc(-c2c[nH]c(-c3ccc(NS(C)(=O)=O)cc3)n2)cc1 [Compound 152] | – | – | 91
13 | CCOc1cccc(-c2nc(-c3cccc(C)c3)n[nH]2)c1 [Compound 106, 5-(3-Ethoxyphenyl)-3-(3-methylphenyl)-1H-1,2,4-triazole] | – | – | 44
14 | O=C(O)c1ccc(-c2cc(-c3ccc(F)cc3)[nH]n2)cc1 [Compound 142, 4-[5-(4-Fluorophenyl)-1H-pyrazol-3-yl]benzoic acid] | – | – | 46
15 | CSc1ccc(-c2nc(-c3ccc(C(=O)O)cc3)no2)cc1 [Compound 96, 4-{5-[4-(Methylsulfanyl)phenyl]-1,2,4-oxadiazol-3-yl}benzoic acid] | – | – | 4
16 | Cc1ccc(-c2cc(-c3ccc(O)cc3)no2)cc1 [Compound 85, 3-(4-Hydroxyphenyl)-5-(4-methylphenyl)-1,2-oxazole] | – | – | 10

Row | Compound | activity at 100 µM (Rhodococcus sp.) [%] | activity at 100 µM [1] [%] | inhibition at 100 µM (P. infestans) [%]
17 | CCOC(=O)c1cccc(-c2ncc(-c3ccc(C(F)(F)F)cc3OC)o2)c1 [Compound 121, Ethyl 3-{5-[2-methoxy-4-(trifluoromethyl)phenyl]-1,3-oxazol-2-yl}benzoate] | – | – | 28
18 | O=C(Nc1cccc(-c2c[nH]c(-c3ccc(F)cc3)n2)c1)c1ccccc1 [Compound 88, N-{3-[2-(4-fluorophenyl)-1H-imidazol-5-yl]phenyl}benzamide] | – | – | 28
19 | Cc1ccc(S(=O)(=O)Nc2ccc(-c3cc(-c4ccccc4F)no3)cc2)cc1 [Compound 47, N-{4-[3-(2-Fluorophenyl)-isoxazol-5-yl]phenyl}-4-methylbenzenesulfonamide] | – | – | 19
20 | Oc1ccc(-c2nc(-c3ccc(C(F)(F)F)cc3)no2)cc1 [Compound 72, 5-(4-Hydroxyphenyl]-3-[4-(trifluoromethyl)phenyl]-1,2,4-oxadiazole] | – | – | 83
21 | c1cc2c(cc1-c1cnc(-c3ccc(N4CCOCC4)cc3)[nH]1)CCO2 [Compound 109, 4-{4-[5-(2,3-Dihydro-1-benzofuran-5-yl)-1H-imidazol-2-yl]phenyl}morpholine] | – | – | 11
22 | Cc1ccc(-c2cc(-c3ccc(NC(=O)[C@@H](N)CCC(N)=O)cc3)[nH]n2)cc1 [Compound 162, (2S)-2-Amino-N1-{4-[3-(4-methylphenyl)-1H-pyrazol-5-yl]phenyl}pentanediamide hydrochloride] | – | – | 34
23 | Oc1cc(Cl)cc(-c2nc(-c3ccc(OC(F)(F)F)cc3)co2)c1 [Compound 132, 2-(3-Chloro-5-hydroxyphenyl)-4-[4-(trifluoromethoxy)phenyl]-1,3-oxazole] | – | – | 66
24 | Cc1ccc([N+](=O)[O-])cc1-c1nc(-c2ccc(F)cc2)n[nH]1 [Compound 99, 3-(4-Fluorophenyl)-5-(2-methyl-5-nitrophenyl)-1H-1,2,4-triazole] | – | – | 64
25 | O=C(Nc1ccc(F)cc1)Nc1ccc(-c2cc(-c3cccc(OC(F)(F)F)c3)n[nH]2)cc1 [Compound 127, 1-(4-Fluorophenyl)-3-(4-{5-[3-(trifluoromethoxy)phenyl]-1H-pyrazol-3-yl}phenyl)urea] | – | – | 18
26 | FC(F)(F)Oc1ccc(-c2c[nH]c(-c3ccc(Br)cc3)n2)cc1 [Compound 84, 2-(4-Bromophenyl)-5-[4-(trifluoromethoxy)phenyl]-1H-imidazole] | – | – | 96
27 | COc1ccc(-c2c[nH]c(-c3cccc(N4CCOCC4)c3)n2)cc1OC [Compound 144, 4-{3-[4-(3,4-Dimethoxyphenyl)-1H-imidazol-2-yl]phenyl}morpholine] | – | – | 81
28 | COc1ccc(-c2noc(-c3ccccc3Br)n2)cc1 [Compound 68, 5-(2-Bromophenyl)-3-(4-methoxyphenyl)-1,2,4-oxadiazole] | – | – | 17
29 | O=C(Nc1cccc(-c2c[nH]c(-c3ccc(F)cc3)n2)c1)C(F)(F)F [Compound 54, 2,2,2-Trifluoro-N-{3-[2-(4-fluorophenyl)-1H-imidazol-5-yl]phenyl}acetamide] | – | – | 91
30 | O=C(Nc1ccc(-c2cc(-c3cccc(OC(F)(F)F)c3)n[nH]2)cc1)C(F)(F)F [Compound 128, 2,2,2-Trifluoro-N-(4-{5-[3-(trifluoromethoxy)phenyl]-1H-pyrazol-3-yl}phenyl)acetamide] | – | – | 6
31 | COC(=O)Nc1cccc(-c2ncc(-c3ccc(Cl)c(Cl)c3)o2)c1 [Compound 120, Methyl {3-[5-(3,4-dichlorophenyl)-1,3-oxazol-2-yl]phenyl}carbamate] | – | – | 12
32 | O=S(=O)(Nc1cccc(-c2nc(-c3ccc(OC(F)(F)F)cc3)c[nH]2)c1)c1ccc(Cl)cc1 [Compound 136, 4-Chloro-N-(3-{4-[4-(trifluoromethoxy)phenyl]-1H-imidazol-2-yl}phenyl)benzenesulfonamide] | – | – | 7
